Laboratory results published in patent publication US9732075B2, “Benzimidazole-proline derivatives” (IDORSIA PHARMACEUTICALS LTD, priority 2012, dated 2017).
pIC50: −log10 of the molar value.

Assays:
human orexin-1 receptor = human orexin-1 receptor (Homo sapiens (Human), UniProt O43613); test: In vitro assay: intracellular calcium measurements (FLIPR), antagonistic activity; assay type: cell-based; conditions: CHO cells expressing human orexin-1 receptor, orexin-A agonist, geometric mean, read-out: IC50 Ox1
human orexin-1 receptor, sequence (O43613 whole entry): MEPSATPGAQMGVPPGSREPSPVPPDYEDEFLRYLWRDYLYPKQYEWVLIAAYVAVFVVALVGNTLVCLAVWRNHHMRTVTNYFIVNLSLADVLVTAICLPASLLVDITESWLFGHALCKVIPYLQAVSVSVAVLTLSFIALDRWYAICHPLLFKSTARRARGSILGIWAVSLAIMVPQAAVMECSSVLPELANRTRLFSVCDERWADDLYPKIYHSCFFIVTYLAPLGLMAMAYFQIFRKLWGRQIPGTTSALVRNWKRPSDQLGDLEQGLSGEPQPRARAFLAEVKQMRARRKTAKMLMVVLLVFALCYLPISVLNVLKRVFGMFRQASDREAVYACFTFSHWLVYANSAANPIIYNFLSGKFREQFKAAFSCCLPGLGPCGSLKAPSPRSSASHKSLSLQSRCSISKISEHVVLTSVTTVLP
How it was run: (§1)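 Dye-loaded CHO cells expressing either human orexin receptor are exposed to test antagonist for 120 min, then stimulated with orexin-A at 3 nM.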

human orexin-2 receptor = human orexin-2 receptor (Homo sapiens (Human), UniProt O43614); test: as above; assay type: cell-based; conditions: CHO cells expressing human orexin-2 receptor, orexin-A agonist, geometric mean, read-out: IC50 Ox2
human orexin-2 receptor, sequence (O43614 whole entry): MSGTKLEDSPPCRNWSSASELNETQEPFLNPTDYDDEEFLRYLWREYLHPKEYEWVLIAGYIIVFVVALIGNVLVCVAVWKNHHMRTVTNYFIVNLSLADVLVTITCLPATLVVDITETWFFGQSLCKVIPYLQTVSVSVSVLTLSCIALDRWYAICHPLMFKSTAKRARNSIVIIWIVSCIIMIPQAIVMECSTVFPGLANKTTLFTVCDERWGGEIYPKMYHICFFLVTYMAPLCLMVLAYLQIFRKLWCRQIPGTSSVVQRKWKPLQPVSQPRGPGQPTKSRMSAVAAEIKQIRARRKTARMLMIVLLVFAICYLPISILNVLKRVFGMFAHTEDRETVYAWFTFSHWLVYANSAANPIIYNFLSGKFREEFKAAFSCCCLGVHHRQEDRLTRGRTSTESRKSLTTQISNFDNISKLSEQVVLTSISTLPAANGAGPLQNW
How it was run: as §1

pIC50 (human orexin-1 receptor) | pIC50 (human orexin-2 receptor) | SMILES
7.82 | 5.97 | Cc1ccc(-c2ncccn2)c(C(=O)N2CC[C@H](C)[C@H]2c2nc3c(C)c(Cl)ccc3[nH]2)c1F [Ex. 4.176]
6.54 | 5.94 | C[C@@]1(c2nc3cc(C(F)(F)F)ccc3[nH]2)CCCN1C(=O)c1cc(OC(F)(F)F)ccc1-n1nccn1 [Ex. 5.173]
7.38 | 6.38 | Cc1nc(C(=O)N2CCCC2c2nc3cc(C(F)(F)F)ccc3[nH]2)c(-c2cccc(Cl)c2)s1 (stereo not drawn) [Ex. 1.94]
7.24 | 7.42 | COc1cccc(-c2ccccc2C(=O)N2CCC[C@@]2(C)c2nc3c(C)c(C)ccc3[nH]2)c1 [Ex. 5.117]
7.68 | 6.91 | COc1ccc(-c2ccc(C#N)cc2)c(C(=O)N2CCC[C@@]2(C)c2nc3c(C)c(Cl)ccc3[nH]2)c1F [Ex. 5.308]
7.74 | 6.27 | Cc1ccc(-c2nc(C)sc2C(=O)N2CC[C@H](C)[C@H]2c2nc3cc(Cl)c(C)cc3[nH]2)cc1 [Ex. 4.79]
5.66 | 7.44 | COc1ccc2[nH]c([C@@H]3CCCN3C(=O)c3cc(C)ccc3-n3cccn3)nc2c1 [Ex. 1.171]
7.12 | 7.66 | CSc1ccc2nc([C@@H]3CCCN3C(=O)c3cnc(C)nc3-c3ccccc3)[nH]c2c1 [Ex. 1.57]
8.30 | 6.75 | Cc1cc2[nH]c([C@@H]3[C@@H](C)CCN3C(=O)c3cc(F)ccc3-c3ccccc3)nc2cc1Cl [Ex. 4.105]
6.61 | 7.74 | C=C1C[C@@H](c2nc3cc(OC)ccc3[nH]2)N(C(=O)c2nc(C)sc2-c2ccccc2)C1 [Ex. 6.3]
6.95 | 7.12 | Cc1nc(C(=O)N2CCCC2c2nc3c(Br)cccc3[nH]2)c(-c2ccccc2)s1 (stereo not drawn) [Ex. 1.130]
6.96 | 7.57 | CSc1ccc2nc([C@@H]3CCCN3C(=O)c3nc(C)sc3-c3cccc(Cl)c3Cl)[nH]c2c1 [Ex. 1.36]
7.70 | 6.01 | Cc1c(Cl)ccc2[nH]c([C@@H]3[C@@H](C)CCN3C(=O)c3cc(F)ccc3-c3ccccn3)nc12 [Ex. 4.165]
7.41 | 6.74 | CSc1cccc2nc([C@@H]3CCCN3C(=O)c3cncnc3-c3cc(Cl)cc(Cl)c3)[nH]c12 [Ex. 1.89]
7.48 | 5.67 | C[C@@]1(c2nc3cc(Cl)c(C(F)(F)F)cc3[nH]2)CCCN1C(=O)c1nc(-c2cccc(F)c2)sc1-c1ccc(F)cc1 [Ex. 5.290]
7.85 | 5.36 | Cc1nc(C(=O)N2CC[C@H](C)[C@H]2c2nc3cc(C(F)(F)F)ccc3[nH]2)c(-c2ccc(F)cc2)s1 [Ex. 4.136]
7.92 | 8.22 | C=C1C[C@@H](c2nc3cc(Cl)c(C(F)(F)F)cc3[nH]2)N(C(=O)c2ccc(C)cc2-n2nccn2)C1 [Ex. 6.182]
7.49 | 6.71 | Cc1nc(C(=O)N2CCCC2c2nc3cc(C(F)(F)F)c(F)cc3[nH]2)c(-c2ccccc2)s1 (stereo not drawn) [Ex. 1.135]
8.00 | 7.74 | Cc1cc(C(=O)N2CCC[C@@]2(C)c2nc3c(C)cccc3[nH]2)c(-n2nccn2)cc1C [Ex. 5.51]
6.59 | 7.14 | C=C1C[C@@H](c2nc3cc(C(C)(C)C)ccc3[nH]2)N(C(=O)c2c(-n3nccn3)ccc(OC)c2F)C1 [Ex. 6.163]

pIC50 (human orexin-1 receptor) | pIC50 (human orexin-2 receptor) | SMILES
8.22 | 7.46 | C[C@@]1(c2nc3cc(C(F)(F)F)c(Cl)cc3[nH]2)CCCN1C(=O)c1cc(F)ccc1-n1nccn1 [Ex. 5.136]
7.68 | 7.68 | CSc1cccc2nc([C@@H]3CCCN3C(=O)c3nc(C4CC4)sc3-c3ccccc3)[nH]c12 [Ex. 1.61]
7.82 | 9.00 | C=C1C[C@@H](c2nc3cccc(C)c3[nH]2)N(C(=O)c2nc(C)sc2-c2ccc(F)c(Br)c2)C1 [Ex. 6.110]
6.69 | 7.09 | C=C1C[C@@H](c2nc3cc(OC)ccc3[nH]2)N(C(=O)c2nc(C3CC3)sc2-c2ccccc2)C1 [Ex. 6.10]
8.10 | 7.72 | CCn1c([C@]2(C)CCCN2C(=O)c2cc(C)ccc2-c2cccc(F)c2)nc2cc(C)c(C)cc21 [Ex. 7.31]
6.86 | 7.12 | COc1cc2nc([C@]3(C)CCCN3C(=O)c3cc(OC(F)(F)F)ccc3-n3nccn3)[nH]c2cc1OC [Ex. 5.84]
5.60 | 6.93 | C=C1C[C@@H](c2nc3cc(OC)ccc3[nH]2)N(C(=O)c2nccnc2-c2ccc(C)cc2)C1 [Ex. 6.4]
7.52 | 8.40 | C=C1C[C@@H](c2nc3ccc(OC)cc3[nH]2)N(C(=O)c2nc(C)sc2-c2ccc(C)c(C)c2)C1 [Ex. 6.46]
6.60 | 7.06 | COc1cccc(-c2nc(C)ncc2C(=O)N2CCC[C@H]2c2nc3ccc(SC)cc3[nH]2)c1 [Ex. 1.56]
8.70 | 9.00 | C=C1CC(c2nc3c(C)cc(C)cc3[nH]2)N(C(=O)c2nc(C3CC3)sc2-c2cccc(C)c2)C1 (stereo not drawn) [Ex. 6.91]
8.52 | 6.21 | Cc1cccc(-c2sc(C)nc2C(=O)N2CC[C@H](C)[C@H]2c2nc3c(Cl)cccc3[nH]2)c1 [Ex. 4.122]
7.14 | 6.99 | Cc1ccc(-c2cccc(C(F)(F)F)c2)c(C(=O)N2CCC[C@@]2(C)c2nc3cc(C(F)(F)F)ccc3[nH]2)c1 [Ex. 5.195]
7.12 | 6.07 | Cc1ccc(-n2cccn2)c(C(=O)N2CCC[C@@]2(C)c2nc3cc(C(F)(F)F)ccc3[nH]2)n1 [Ex. 5.177]
8.40 | 7.10 | Cc1cc2nc([C@@H]3[C@@H](C)CCN3C(=O)c3cc(Cl)ccc3-n3nccn3)[nH]c2cc1C [Ex. 4.81]
7.82 | 7.62 | CSc1cccc2nc([C@@H]3CCCN3C(=O)c3nc(C)sc3-c3cccc(Cl)c3)[nH]c12 [Ex. 1.13]
7.05 | 7.89 | C=C1C[C@@H](c2nc3cc(C)c(C)cc3[nH]2)N(C(=O)c2nc(C)ccc2-n2nccn2)C1 [Ex. 6.202]
8.22 | 7.51 | Cc1ccc(-n2nccn2)c(C(=O)N2CCC[C@@]2(C)c2nc3c(Cl)cc(C(F)(F)F)cc3[nH]2)c1 [Ex. 5.14]
7.24 | 7.26 | COc1cc(C(=O)N2CCC[C@@]2(C)c2nc3cc(C)c(C)cc3[nH]2)c(-n2nccn2)cc1OC [Ex. 5.57]
7.49 | 6.61 | Cc1nc(C(=O)N2CCCC2c2nc3cc(C(F)(F)F)c(F)cc3[nH]2)c(-c2cccc(Cl)c2)s1 (stereo not drawn) [Ex. 1.111]
7.74 | 6.78 | Cc1ccc(-c2ccc(F)cc2)c(C(=O)N2CCC[C@@]2(C)c2nc3cc(C(F)(F)F)ccc3[nH]2)c1 [Ex. 5.197]

pIC50 (human orexin-1 receptor) | pIC50 (human orexin-2 receptor) | SMILES
6.26 | 6.44 | COc1cc2nc([C@]3(C)CCCN3C(=O)c3ncsc3-c3cccc(Cl)c3)[nH]c2cc1OC [Ex. 5.80]
8.15 | 8.40 | C=C1C[C@@H](c2nc3cc(OC)ccc3[nH]2)N(C(=O)c2nc(C)sc2-c2ccc(C)c(C)c2)C1 [Ex. 6.9]
8.22 | 7.70 | Cc1ccc(-c2cccc(F)c2)c(C(=O)N2CCC[C@@]2(C)c2nc3cc(C)c(C)cc3n2CCF)c1 [Ex. 7.35]
7.11 | 6.60 | CSc1ccc2nc([C@@H]3CCCN3C(=O)c3cnc(C)nc3-c3cc(Cl)cc(Cl)c3)[nH]c2c1 [Ex. 1.59]
7.03 | 7.07 | COc1cc(C(=O)N2CCC[C@@]2(C)c2nc3cc(OC)c(OC)cc3[nH]2)c(-n2nccn2)cc1OC [Ex. 5.86]
8.22 | 8.70 | C=C1C[C@@H](c2nc3cc(C)c(C)cc3[nH]2)N(C(=O)c2cc(C)c(C)cc2-n2nccn2)C1 [Ex. 6.197]
7.13 | 7.64 | CSc1ccc2nc([C@@H]3CCCN3C(=O)c3nc(C)sc3-c3ccc(C)cc3)[nH]c2c1 [Ex. 1.40]
8.30 | 8.05 | CO[C@@H]1C[C@@H](c2nc3ccc(Cl)c(C)c3[nH]2)N(C(=O)c2nc(C)sc2-c2ccc(C)cc2)C1 [Ex. 3.36]
7.06 | 7.92 | C=C1C[C@@H](c2nc3cc(OC)ccc3[nH]2)N(C(=O)c2ccccc2-c2cccc(C)c2)C1 [Ex. 6.14]
6.99 | 6.34 | Cc1nc(C(=O)N2CCCC2c2nc3cc(Br)ccc3[nH]2)c(-c2cccc(Cl)c2)s1 (stereo not drawn) [Ex. 1.93]
7.46 | 6.23 | Cc1ccc(-c2ccccn2)c(C(=O)N2CCC[C@@]2(C)c2nc3cc(OC(F)(F)F)ccc3[nH]2)c1 [Ex. 5.239]
6.90 | 7.66 | COc1ccc2nc([C@@H]3CCCN3C(=O)c3ccccc3-c3ccc(C)c(C)c3)[nH]c2c1 [Ex. 1.26]
6.80 | 5.63 | Cc1ccc(-n2cccn2)c(C(=O)N2CC[C@H](C)[C@H]2c2nc3cc(C)c(C)cc3[nH]2)c1 [Ex. 4.83]
7.89 | 7.01 | Cc1ccc(-c2ccccc2F)c(C(=O)N2CCC[C@@]2(C)c2nc3cc(C(F)(F)F)ccc3[nH]2)c1 [Ex. 5.194]
7.49 | 7.15 | Cc1cc(C(=O)N2CCC[C@@]2(C)c2nc3c(C)cc(Br)cc3[nH]2)c(-c2ccccc2)cn1 [Ex. 5.310]
7.77 | 6.74 | Cc1cc(Cl)cc2[nH]c([C@@H]3[C@@H](C)CCN3C(=O)c3cc(Cl)ccc3-n3nccn3)nc12 [Ex. 4.91]
7.82 | 6.87 | Cc1ccc(-n2nccn2)c(C(=O)N2CCC[C@@]2(C)c2nc3cc(F)c(Cl)cc3[nH]2)c1 [Ex. 5.12]
6.67 | 7.72 | C=C1C[C@@H](c2nc3cc(OC)ccc3[nH]2)N(C(=O)c2nc(C)sc2-c2ccc(Cl)cc2)C1 [Ex. 6.5]
8.40 | 7.72 | Cc1cc(C(=O)N2CCC[C@@]2(C)c2nc3cc(C)c(C)cc3n2C)c(-n2nccn2)cc1C [Ex. 7.17]
8.30 | 8.15 | Cc1cccc(-c2ccc(C)cc2C(=O)N2CCC[C@@]2(C)c2nc3c(C)c(C)ccc3[nH]2)c1 [Ex. 5.111]
